Data reported in patent publication US8759520B2, “Compounds for treating cancer” (Boehringer Ingelheim International GmbH, priority 2008, dated 2014).

Target: Bcl-2 (Homo sapiens, UniProt P10415)
Experiment: Homogeneous HTS assay for inhibitors of the Bcl-2 : Bak (72-87) BH3 domain interaction, fluorescence polarisation (2D-FIDA)
Assay type: binding
Conditions: not given
Description: FIG. 1 is a schematic drawing of the Bcl-2: Bak (72-87) interaction assay based on fluorescence polarisation.
The homogeneous HTS assay for inhibitors of the Bcl-2 is shown schematically in FIG. 1. BH3 domain interaction is based on fluorescence polarisation. The inherent rotational diffusion of the Bak BH3 domain derived fluorescent labelled peptide decreases upon binding to Bc1-2. This shift in rotational diffusion is quantitated using the two-dimensional fluorescence intensity distribution analysis (2D-FIDA; Kask et al. 2000, Biophys. J. 78: 1703-1713).
Two different BH3 domain derived peptide ligands were synthesised and subsequently fluorescently labelled: • a 16mer peptide covering amino acids 72-87 of the Bak protein; this peptide had been used by Wang and co-workers and Holinger and coworkers in their Bcl-2 protein binding studies; Wang and co-workers reported an equilibrium binding constant KD of ˜0.2 μM to Bcl-2 protein; • peptide sequence: GQVGRQLAIIGDDINR—N (Wang et al. 2002, Proc. Natl. Acad. Sci. U.S.A. 97: 7124-7129; Holinger et al. 1999, J. Biol. Chem. 274: 13298-13304).

Chain of Bcl-2 (P10415 whole entry, species assumed, the tested form may be a part): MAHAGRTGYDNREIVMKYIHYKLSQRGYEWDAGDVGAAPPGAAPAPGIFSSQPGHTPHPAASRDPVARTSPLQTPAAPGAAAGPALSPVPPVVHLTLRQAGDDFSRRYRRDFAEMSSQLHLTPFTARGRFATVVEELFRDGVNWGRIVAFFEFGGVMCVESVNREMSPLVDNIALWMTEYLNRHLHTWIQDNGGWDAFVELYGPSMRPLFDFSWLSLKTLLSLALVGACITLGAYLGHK

Row | Compound | IC50 [µM]
1 | N=c1n(CCCOc2ccc(F)cc2)c2ccccc2n1Cc1ccc(Cl)nc1 [Compound 52, 1-(6-Chloro-pyridin-3-ylmethyl)-3-[3-(4-fluoro-phenoxy)-propyl]-1,3-dihydro-benzoimidazol-2-ylideneamine] | 11 to 100

Same assay, conditions: fluorescence polarisation, fluorescent labelled Bak BH3 domain derived peptide; read-out: IC50 [μM] Bcl-2

Row | IC50 [µM] | Compound
2 | < 10 | N=c1n(CCCOc2ccc(F)cc2)c2ccccc2n1Cc1cccc(N2CCN(Cc3ccccc3-c3ccccc3)CC2)c1 [Compound 26, 1-[3-(4-Biphenyl-2-ylmethyl-piperazin-1-yl)-benzyl]-3-[3-(4-fluoro-phenoxy)-propyl]-1,3-dihydro-benzoimidazol-2-ylideneamine]
3 | < 10 | CC1(C)CCC(c2ccc(Cl)cc2)=C(CN2CCN(c3cccc(Cn4c(=N)n(CCCOc5ccc(F)cc5)c5ccccc54)c3)CC2)C1 [Compound 31, 1-(3-{4-[2-(4-Chloro-phenyl)-5,5-dimethyl-cyclohex-1-enylmethyl]-piperazin-1-yl}-benzyl)-3-[3-(4-fluoro-phenoxy)-propyl]-1,3-dihydro-benzoimidazol-2-ylideneamine]
4 | 11 to 100 | N=c1n(Cc2ccc(Cl)cc2)c2ccccc2n1CC(O)COc1ccccc1 (centres unmarked) [Compound 103, 1-[3-(4-Chloro-benzyl)-2-imino-2,3-dihydro-benzoimidazol-1-yl]-3-phenoxy-propan-2-ol]
5 | 11 to 100 | Cc1ccccc1OCC(O)Cn1c(=N)n(Cc2ccccc2)c2ccccc21 (centres unmarked) [Compound 79, 1-(3-Benzyl-2-imino-2,3-dihydro-benzoimidazol-1-yl)-3-o-tolyloxy-propan-2-ol]
6 | 11 to 100 | N=c1n(CCCOc2ccc(Br)cc2)c2ccccc2n1Cc1ccccc1 [Compound 87, 1-Benzyl-3-[3-(4-bromo-phenoxy)-propyl]-1,3-dihydro-benzoimidazol-2-ylideneamine]
7 | 11 to 100 | N=c1n(CCCOc2ccc(F)cc2)c2ccc(F)cc2n1Cc1ccc(Br)cc1 [Compound 59, 3-(4-Bromo-benzyl)-5-fluoro-1-[3-(4-fluoro-phenoxy)-propyl]-1,3-dihydro-benzoimidazol-2-ylideneamine]
8 | 11 to 100 | N=c1n(CCCOc2ccc(F)cc2)c2ccccc2n1Cc1ccc(CNCC(=O)Nc2ccccc2Cl)cc1 [Compound 43, N-(2-Chloro-phenyl)-2-(4-{3-[3-(4-fluoro-phenoxy)-propyl]-2-imino-2,3-dihydro-benzoimidazol-1-ylmethyl}-benzylamino)-acetamide]
9 | < 10 | N=c1n(CCCOc2ccc(F)cc2)c2ccccc2n1Cc1ccc(CN2CCN(Cc3ccccc3)CC2)cc1 [Compound 46, 1-[4-(4-Benzyl-piperazin-1-ylmethyl)-benzyl]-3-[3-(4-fluoro-phenoxy)-propyl]-1,3-dihydro-benzoimidazol-2-ylideneamine]
10 | 11 to 100 | CCOC(=O)Cn1c(=N)n(CCCOc2ccc(F)cc2)c2ccccc21 [Compound 8, {3-[3-(4-Fluoro-phenoxy)-propyl]-2-imino-2,3-dihydro-benzoimidazol-1-yl}-acetic acid ethyl ester]
11 | 11 to 100 | N=c1n(CCCOc2ccc(F)cc2)c2cc(F)ccc2n1Cc1ccc(Br)cc1 [Compound 61, 1-(4-Bromo-benzyl)-5-fluoro-3-[3-(4-fluoro-phenoxy)-propyl]-1,3-dihydro-benzoimidazol-2-ylideneamine]
12 | 11 to 100 | N=c1n(CCCOc2ccc(F)cc2)c2ccccc2n1Cc1ccc(CNCC(=O)Nc2ccc(Cl)cc2)cc1 [Compound 45, N-(4-Chloro-phenyl)-2-(4-{3-[3-(4-fluoro-phenoxy)-propyl]-2-imino-2,3-dihydro-benzoimidazol-1-ylmethyl}-benzylamino)-acetamide]
13 | 11 to 100 | COC(=O)c1ccc(OCCCn2c(=N)n(Cc3cccc(Br)c3)c3ccccc32)cc1 [Compound 67, 4-{3-[3-(3-Bromo-benzyl)-2-imino-2,3-dihydro-benzoimidazol-1-yl]-propoxy}-benzoic acid methyl ester]
14 | 11 to 100 | N=c1n(CCCOc2ccc(F)cc2)c2ccccc2n1Cc1ccc(-c2ccc(F)cc2)cc1 [Compound 16, 1-(4′-Fluoro-biphenyl-4-ylmethyl)-3-[3-(4-fluoro-phenoxy)-propyl]-1,3-dihydro-benzoimidazol-2-ylideneamine]
15 | 11 to 100 | Cc1ccccc1Cn1c(=N)n(CCCOc2ccccc2)c2ccccc21 [Compound 94, 1-(2-Methyl-benzyl)-3-(3-phenoxy-propyl)-1,3-dihydro-benzoimidazol-2-ylideneamine]
16 | 11 to 100 | N=c1n(CCCOc2ccc(F)cc2)c2cc(C(F)(F)F)ccc2n1Cc1ccc(Br)cc1 [Compound 60, 1-(4-Bromo-benzyl)-3-[3-(4-fluoro-phenoxy)-propyl]-5-trifluoromethyl-1,3-dihydro-benzoimidazol-2-ylideneamine]
17 | < 10 | N=c1n(CCCOc2ccccc2)c2ccccc2n1Cc1ccc(N2CCN(Cc3ccccc3-c3ccc(Cl)cc3)CC2)cc1 [Compound 30, 1-{4-[4-(4′-Chloro-biphenyl-2-ylmethyl)-piperazin-1-yl]-benzyl}-3-(3-phenoxy-propyl)-1,3-dihydro-benzoimidazol-2-ylideneamine]

Row | IC50 [µM] | Compound
18 | < 10 | N=c1n(CCCOc2ccc(F)cc2)c2ccccc2n1Cc1ccccc1N1CCN(Cc2ccccc2-c2ccccc2)CC1 [Compound 38, 1-[2-(4-Biphenyl-2-ylmethyl-piperazin-1-yl)-benzyl]-3-[3-(4-fluoro-phenoxy)-propyl]-1,3-dihydro-benzoimidazol-2-ylideneamine]
19 | < 10 | N=c1n(CCCOc2ccc(F)cc2)c2ccccc2n1Cc1ccc(N2CCN(Cc3ccccc3-c3ccccc3)CC2)cc1 [Compound 25, 1-[4-(4-Biphenyl-2-ylmethyl-piperazin-1-yl)-benzyl]-3-[3-(4-fluoro-phenoxy)-propyl]-1,3-dihydro-benzoimidazol-2-ylideneamine]
20 | < 10 | COC(=O)c1cccc(Cn2c(=N)n(CCCOc3ccc(F)cc3)c3ccccc32)c1 [Compound 15, 3-{3-[3-(4-Fluoro-phenoxy)-propyl]-2-imino-2,3-dihydro-benzoimidazol-1-ylmethyl}-benzoic acid methyl ester]
21 | 11 to 100 | CCOC(=O)c1cccc(OCCCn2c(=N)n(Cc3cccc(Br)c3)c3ccccc32)c1 [Compound 68, 3-{3-[3-(3-Bromo-benzyl)-2-imino-2,3-dihydro-benzoimidazol-1-yl]-propoxy}-benzoic acid ethyl ester]
22 | 11 to 100 | N=c1n(Cc2ccccc2)c2ccccc2n1CC(O)COc1ccc([N+](=O)[O-])cc1 (centres unmarked) [Compound 81, 1-(3-Benzyl-2-imino-2,3-dihydro-benzoimidazol-1-yl)-3-(4-nitro-phenoxy)-propan-2-ol]
23 | 11 to 100 | N=c1n(CCCOc2ccc(F)cc2)c2ccccc2n1Cc1ccc(Cl)c(Cl)c1 [Compound 11, 1-(3,4-Dichloro-benzyl)-3-[3-(4-fluoro-phenoxy)-propyl]-1,3-dihydro-benzoimidazol-2-ylideneamine]
24 | < 10 | N=c1n(Cc2ccccc2)c2ccccc2n1Cc1ccc(N2CCN(Cc3ccccc3-c3ccccc3)CC2)cc1 [Compound 18, 1-Benzyl-3-[4-(4-biphenyl-2-ylmethyl-piperazin-1-yl)-benzyl]-1,3-dihydro-benzoimidazol-2-ylideneamine]
25 | 11 to 100 | N=c1n(CCCOc2ccc(F)cc2)c2ccccc2n1Cc1cccc(Br)c1 [Compound 6, 1-(3-Bromo-benzyl)-3-[3-(4-fluoro-phenoxy)-propyl]-1,3-dihydro-benzoimidazol-2-ylideneamine]
26 | 11 to 100 | Cc1ccc2c(c1)n(Cc1ccc(Br)cc1)c(=N)n2CCCOc1ccc(F)cc1 [Compound 58, 3-(4-Bromo-benzyl)-1-[3-(4-fluoro-phenoxy)-propyl]-5-methyl-1,3-dihydro-benzoimidazol-2-ylideneamine]
27 | 11 to 100 | Cc1ccc(Cn2c(=N)n(CC(O)COc3ccccc3)c3ccccc32)cc1 (centres unmarked) [Compound 100, 1-[2-Imino-3-(4-methyl-benzyl)-2,3-dihydro-benzoimidazol-1-yl]-3-phenoxy-propan-2-ol]
28 | < 10 | CC1(C)CCC(c2ccc(Cl)cc2)=C(CN2CCN(c3ccc(Cn4c(=N)n(CCCOc5ccccc5)c5ccccc54)cc3)CC2)C1 [Compound 32, 1-(4-{4-[2-(4-Chloro-phenyl)-5,5-dimethyl-cyclohex-1-enylmethyl]-piperazin-1-yl}-benzyl)-3-(3-phenoxy-propyl)-1,3-dihydro-benzoimidazol-2-ylideneamine]
29 | 11 to 100 | COC(=O)c1ccc(OCCCn2c(=N)n(Cc3ccc(Br)cc3)c3ccccc32)cc1 [Compound 66, 4-{3-[3-(4-Bromo-benzyl)-2-imino-2,3-dihydro-benzoimidazol-1-yl]-propoxy}-benzoic acid methyl ester]
30 | 11 to 100 | N=c1n(CCCOc2ccc(F)cc2)c2ccccc2n1Cc1cccc(Cl)c1 [Compound 10, 1-(3-Chloro-benzyl)-3-[3-(4-fluoro-phenoxy)-propyl]-1,3-dihydro-benzoimidazol-2-ylideneamine]
31 | 11 to 100 | COc1ccccc1OCC(O)Cn1c(=N)n(Cc2ccccc2)c2ccccc21 (centres unmarked) [Compound 89, 1-(3-Benzyl-2-imino-2,3-dihydro-benzoimidazol-1-yl)-3-(2-methoxy-phenoxy)-propan-2-ol]
32 | 11 to 100 | CCOC(=O)c1cccc(OCCCn2c(=N)n(Cc3ccccc3)c3ccccc32)c1 [Compound 71, 3-[3-(3-Benzyl-2-imino-2,3-dihydro-benzoimidazol-1-yl)-propoxy]-benzoic acid ethyl ester]
